Measured values published in ChEMBL document CHEMBL1201862, “PubChem BioAssay data set” (2004).
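Exposure lasted 48 hours, with cells grown in 96-well plates and compounds tested at five concentrations. GI50 = concentration required for 50% inhibition of growth.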 Activity calls are given as the source filed them. Cut-off read from the data, not from the text of the source: active = GI50 up to about 1.1 µM and inactive = higher.

Legend:
Assay in all cases: NCI tumour cell line growth inhibition, 48 h
HCT-15 = test system: HCT-15
HT-29 = test system: HT-29
UACC-257 = test system: UACC-257
KM12 = test system: KM12
COLO 205 = test system: COLO 205
SK-MEL-5 = test system: SK-MEL-5
OVCAR-4 = test system: OVCAR-4
SF-295 = test system: SF-295
MDA-MB-231 = test system: MDA-MB-231
LOX IMVI = test system: LOX IMVI
RPMI-8226 = test system: RPMI-8226
HOP-62 = test system: HOP-62
U-251 = test system: U-251
IGROV-1 = test system: IGROV-1
DU-145 = test system: DU-145
OVCAR-5 = test system: OVCAR-5
RXF 393 = test system: RXF 393
NCI-H23 = test system: NCI-H23
ACHN = test system: ACHN
T47D = test system: T47D
SNB-75 = test system: SNB-75
MOLT-4 = test system: MOLT-4
M14 = test system: M14
SN12C = test system: SN12C
OVCAR-8 = test system: OVCAR-8
Malme-3M = test system: Malme-3M
BT-549 = test system: BT-549
SF-268 = test system: SF-268
MDA-N = test system: MDA-N
HOP-92 = test system: HOP-92
Hs-578T = test system: Hs-578T
MCF7 = test system: MCF7
SR = test system: SR
NCI-H460 = test system: NCI-H460
HCC 2998 = test system: HCC 2998
SK-MEL-2 = test system: SK-MEL-2
OVCAR-3 = test system: OVCAR-3
SF-539 = test system: SF-539
SK-MEL-28 = test system: SK-MEL-28
CAKI-1 = test system: CAKI-1
EKVX = test system: EKVX
SW-620 = test system: SW-620
UACC-62 = test system: UACC-62
MDA-MB-435 = test system: MDA-MB-435
PC-3 = test system: PC-3
HCT-116 = test system: HCT-116
786-0 = test system: 786-0
HL-60 = test system: HL-60
UO-31 = test system: UO-31
NCI-H522 = test system: NCI-H522
K562 = test system: K562
SNB-19 = test system: SNB-19
TK-10 = test system: TK-10
CCRF-CEM = test system: CCRF-CEM
NCI/ADR-RES = test system: NCI/ADR-RES
A549 = test system: A549
A498 = test system: A498
NCI-H226 = test system: NCI-H226
SK-OV-3 = test system: SK-OV-3

CCN(CC)CCC(=O)c1ccc(Oc2ccc(Cl)cc2)cc1
GI50 (HCT-15): 18.4 µM | GI50 (HT-29): 21.2 µM (inactive) | GI50 (UACC-257): 14 µM (inactive) | GI50 (KM12): 14.4 µM (inactive) | GI50 (COLO 205): 24.3 µM (inactive) | GI50 (SK-MEL-5): 17.5 µM (inactive) | GI50 (OVCAR-4): 15.8 µM (inactive) | GI50 (SF-295): 18.4 µM (inactive) | GI50 (MDA-MB-231): 14.5 µM (inactive) | GI50 (LOX IMVI): 14.6 µM (inactive) | GI50 (RPMI-8226): 3.82 µM (inactive) | GI50 (HOP-62): 11.8 µM (inactive) | GI50 (U-251): 16.9 µM (inactive) | GI50 (IGROV-1): 20.4 µM (inactive) | GI50 (DU-145): 21.6 µM (inactive) | GI50 (OVCAR-5): 16.2 µM (inactive) | GI50 (RXF 393): 22.3 µM (inactive) | GI50 (NCI-H23): 17.2 µM (inactive) | GI50 (ACHN): 12.9 µM (inactive) | GI50 (T47D): 20.7 µM (inactive) | GI50 (SNB-75): 12 µM (inactive) | GI50 (MOLT-4): 20.4 µM (inactive) | GI50 (M14): 15.1 µM (inactive) | GI50 (SN12C): 17.4 µM (inactive) | GI50 (OVCAR-8): 19.9 µM (inactive) | GI50 (Malme-3M): 18 µM (inactive) | GI50 (BT-549): 17 µM (inactive) | GI50 (SF-268): 16.7 µM (inactive) | GI50 (MDA-N): 16.1 µM (inactive) | GI50 (HOP-92): 16.2 µM (inactive) | GI50 (Hs-578T): 23.6 µM (inactive) | GI50 (MCF7): 17.7 µM (inactive) | GI50 (SR): 20.1 µM (inactive) | GI50 (NCI-H460): 14.7 µM (inactive) | GI50 (HCC 2998): 18.8 µM (inactive) | GI50 (SK-MEL-2): 14.5 µM (inactive) | GI50 (OVCAR-3): 15.3 µM (inactive) | GI50 (SF-539): 24.8 µM (inactive) | GI50 (SK-MEL-28): 17.7 µM (inactive) | GI50 (CAKI-1): 23.3 µM (inactive) | GI50 (EKVX): 19.5 µM (inactive) | GI50 (SW-620): 22 µM (inactive) | GI50 (UACC-62): 18.6 µM (inactive) | GI50 (MDA-MB-435): 18.1 µM (inactive) | GI50 (PC-3): 15.1 µM (inactive) | GI50 (HCT-116): 17.6 µM (inactive) | GI50 (786-0): 14.9 µM (inactive) | GI50 (HL-60): 21.1 µM (inactive) | GI50 (UO-31): 18 µM (inactive) | GI50 (NCI-H522): 19 µM (inactive) | GI50 (K562): 31.8 µM (inactive) | GI50 (SNB-19): 30 µM (inactive) | GI50 (TK-10): 18.3 µM (inactive) | GI50 (CCRF-CEM): 19.5 µM (inactive) | GI50 (NCI/ADR-RES): 22.3 µM (inactive) | GI50 (A549): > 100 µM (inactive) | GI50 (A498): 16.1 µM (inactive)

C(#CP(c1ccccc1)c1ccccc1)P(C#CP(c1ccccc1)c1ccccc1)c1ccccc1
GI50 (HCT-15): > 100 µM | GI50 (HT-29): > 100 µM (inactive) | GI50 (UACC-257): > 100 µM (inactive) | GI50 (NCI-H226): > 100 µM (inactive) | GI50 (KM12): > 100 µM (inactive) | GI50 (COLO 205): > 100 µM (inactive) | GI50 (SK-MEL-5): > 100 µM (inactive) | GI50 (OVCAR-4): > 100 µM (inactive) | GI50 (SF-295): 5.9 µM (inactive) | GI50 (MDA-MB-231): > 100 µM (inactive) | GI50 (RPMI-8226): > 100 µM (inactive) | GI50 (HOP-62): > 100 µM (inactive) | GI50 (U-251): > 100 µM (inactive) | GI50 (SK-OV-3): 2.77 µM (inactive) | GI50 (IGROV-1): > 100 µM (inactive) | GI50 (DU-145): > 100 µM (inactive) | GI50 (OVCAR-5): 1.63 µM (inactive) | GI50 (RXF 393): > 100 µM (inactive) | GI50 (ACHN): > 100 µM (inactive) | GI50 (T47D): > 100 µM (inactive) | GI50 (SNB-75): > 100 µM (inactive) | GI50 (MOLT-4): > 100 µM (inactive) | GI50 (M14): 0.798 µM (active) | GI50 (SN12C): > 100 µM (inactive) | GI50 (OVCAR-8): > 100 µM (inactive) | GI50 (Malme-3M): > 100 µM (inactive) | GI50 (BT-549): > 100 µM (inactive) | GI50 (SF-268): > 100 µM (inactive) | GI50 (MDA-N): > 100 µM (inactive) | GI50 (HOP-92): > 100 µM (inactive) | GI50 (Hs-578T): > 100 µM (inactive) | GI50 (MCF7): > 100 µM (inactive) | GI50 (SR): > 100 µM (inactive) | GI50 (NCI-H460): > 100 µM (inactive) | GI50 (HCC 2998): > 100 µM (inactive) | GI50 (SK-MEL-2): > 100 µM (inactive) | GI50 (OVCAR-3): > 100 µM (inactive) | GI50 (SF-539): > 100 µM (inactive) | GI50 (SK-MEL-28): > 100 µM (inactive) | GI50 (CAKI-1): > 100 µM (inactive) | GI50 (EKVX): > 100 µM (inactive) | GI50 (SW-620): > 100 µM (inactive) | GI50 (UACC-62): > 100 µM (inactive) | GI50 (MDA-MB-435): > 100 µM (inactive) | GI50 (PC-3): > 100 µM (inactive) | GI50 (HCT-116): > 100 µM (inactive) | GI50 (786-0): > 100 µM (inactive) | GI50 (HL-60): > 100 µM (inactive) | GI50 (UO-31): > 100 µM (inactive) | GI50 (NCI-H522): > 100 µM (inactive) | GI50 (K562): > 100 µM (inactive) | GI50 (SNB-19): > 100 µM (inactive) | GI50 (TK-10): > 100 µM (inactive) | GI50 (CCRF-CEM): > 100 µM (inactive) | GI50 (NCI/ADR-RES): > 100 µM (inactive) | GI50 (A549): > 100 µM (inactive) | GI50 (A498): > 100 µM (inactive)
